These results are taken from PMC7702137 (2020).

Test [1] deals with r(CUG)9 (RNA, repeat) CUGCUGCUGCUGCUGCUGCUGCUGCUG
The experiment in a line: SPR single cycle kinetics. The note with it: 25 °C.

Test [2] deals with r(CCG)9 (RNA, repeat) CCGCCGCCGCCGCCGCCGCCGCCGCCG
Put plainly: SPR single cycle kinetics. The note with it: HBS-EP+ buffer, 25 °C.

As to `NCCCNc1nc(NC(=O)OCCCN)cc2c(-c3ccnc(N4CCNCC4)c3)cccc12`, the “K d(app)” value in test [1] (Na+ not printed for the running buffer (HBS-EP+; 500 mM NaCl only for immobilization), apparent, assumed 1:1 binding isotherm, 0.063-1.0 μM) was 1200 nM. For the same compound, the binding result in test [2] (highest concentration tested 1.0 μM) is “weak”.
As for `NCCCNc1nc(NC(=O)OCCCNC(=O)CCNCCC(=O)NCCCOC(=O)Nc2cc3c(-c4ccnc(N5CCNCC5)c4)cccc3c(NCCCN)n2)cc2c(-c3ccnc(N4CCNCC4)c3)cccc12`, the binding entry is given as “yes” in test [1] (HBS-EP+ buffer, 6.3-100 nM, significant response from 6.3 nM, not fitted) and “weak” in test [2] (highest concentration tested 0.1 μM).
